“And” between values parts separate entries of the source, which are not always exact repeats. Equal values may be shown once. “Also recorded” adds a separate entry of the source. Non-standard residues stand in square brackets, D forms with d. Residues, ends and D or L forms follow the SMILES beside them. *: point of attachment. Biotin = O=C1N[C@H]2[C@H](CS[C@H]2CCCCC(=O)*)N1
What was measured:
MDBK cells [1] = test: Mitochondrial membrane potential in serum-starved cells (MitoTracker Red); format: cell-based, bovine
Experimental: MDBK cells incubated in serum free media for 5-7 days in the presence or absence of 1 μM of biotin-HDAP2. At the end of the incubation period 100 nM MitoTracker was added to the cells and incubated for 15 minutes. Then, media was removed and cells were fixed in 4% PFA. Cells were then visualized using a fluorescent microscope (Nikon Eclipse-ci-SRS). Experiments were conducted 5 times in triplicate for each experimental condition.
To measure the effects of biotin-HDAP2 on the mitochondrial potential and cellular oxidative stress, cells were cultured in DMEM/F12 without fetal bovine serum (FSB) in the presence or absence of biotin-HDAP2 (1 μM). After 3 days, nuclei were labeled with Hoechst 33342 (10 μg/ml) and cells were incubated for 15 minutes at 37° C. with MTR (100 nM) to evaluate the strength of the mitochondrial potential or were incubated with the general oxidative stress indicator CM-H2DCFDA (5 μM, Invitrogen, Carlsbad, CA) for 15 min at 37° C. In each instance, cells were imaged immediately after staining and prior to fixation.
Unless otherwise noted, data for all tissue culture experiments were collected from three independent trials, with each experiment done in triplicate. For each experiment, 4-6 fields of cells were randomly selected and imaged using a Nikon Eclipse 50i fluorescent microscope with a 40X immersion objective (NA 0.8) and using filters specific for either green or red wavelengths as appropriate (ex488 nm/ex515-540 nm). Photooxidation of the indicator dyes were minimized by using single exposures to the fluorescence for each field imaged. Fluorescence intensity was analyzed using ImageJ (NIH), and MTR and CM-H2DCFDA fluorescence were normalized to Hoechst fluorescence to account for differences in cell number in each field. Differences among groups were compared by Student's t-test and P values less than 0.05 were considered significant. All data are expressed as means±SEM.

[2] = Nile Red fluorescence shift in POPC-CL liposomes; format: binding, bovine; details: 638 nm before the shift
Experimental: The resulting multilamellar vesicles were vortexed lightly and sized into small unilamellar vesicles by heated bath sonication for 25 min. All liposomes were cooled to ambient temperature before use.
Interactions between biotin-HDAP2 and Phospholipid liposomes measured by Nile Red fluorescence: The hydrophobicity of biotin-HDAP2 and phospholipids was examined by changes in the spectral fluorescence shift and intensity of Nile Red (NR, 10 μM). NR increases its intensity of fluorescence when combined with the hydrophobic environments of acyl chains of phospholipids, and produces a blue shift when hydrophobicity is increased. All experiments were done with 30 μM of either CL or POPC and 30 μM of biotin-HDAP2 in 10 mM Hepes (pH 7.4) to optimize the electrostatic interactions of peptides with phospholipids. The solvents used to dissolve the various phospholipids (chloroform, methanol, and ethanol) had negligible effects on the fluorescence spectra.

mice = details: 3 mg/kg daily for 14 days or biweekly for two months
[3] = tested on: retinal ganglion cells and optic nerve; test: Optic nerve protection with elevated intraocular pressure; format: in vivo, DBA/2J mice
Experimental: A series of experiments were conducted to determine if biotin-HDAP2 preserves mitochondrial ultrastructure in retinal ganglion cells (RGC) axons, whether biotin-HDAP2 preserves the integrity of axons in the optic nerve and/or whether biotin-HDAP2 treatment improves RGC survival. To these ends, 100 DBA/2J mice (8 and 12 weeks old) were obtained with the goal of studying them at 6 and 12 months of age. A small number of animals were examined at 6 months, but they had not yet developed elevated intraocular pressure (IOP), and no differences were observed between treatment conditions in optic nerve appearance or retinal ganglion cell distribution. Therefore, further analysis was delayed until animals reached 10 months, when elevated IOP was reliably present.
Optic nerves from all three experimental conditions (control, untreated and biotin-HDAP2-treated) have been embedded for ultrastructural analysis.
Nerves were obtained from 10-month-old animals who had high IOP for at least 3 consecutive months. Differences between control, untreated and biotin-HDAP2-treated groups were striking and correlated closely with cumulative intraocular pressure (cIOP) exposure.
All retinas in this study were stained with RBPMS, imaged using confocal microscopy, and RGCs were automatically counted using ImageJ. To assess the overall effect of biotin-HDAP2 treatment on RGC survival, RGC counts between biotin-HDAP2-treated and Untreated animals were compared across all available time points.

MDBK cells [4] = test: Cell survival in serum-free media (AlamarBlue); format: cell-based, bovine
Experimental: Serum starvation experiments: Biotin-HDAP2's ability to improve cell viability and function following serum starvation was assessed. For all experiments, MDBK cells were seeded in 35 mm cell culture dishes (5×10^4 cells) in DMEM medium with 10% FBS (Fetal Bovine Serum) for 24 hrs and then incubated in serum-free medium with or without biotin-HDAP2 (1 μM) for 5 days to induce cell death. For quantitative measurements, wells were washed to remove dead cells, and then stained with AlamarBlue for 60 min. Quantitative analysis of dye conversion was measured using a fluorescent plate reader (550 ex/580 em) and cell viability was expressed as folds change (increase or decrease) over scrum-starved untreated cells.
Effects of peptides on cell survival in serum-free media: Cell survival in serum starvation conditions was studied in the presence and absence of biotin-HDAP2 using MDBK cells. Cells were plated at a density of 1-2×10^5 cells/well in 96 well plates in DMEM/10% FBS media. The following day, cells were washed and the medium replaced with DMEM serum-free media in the presence or absence of different concentrations of biotin-HDAP2 and incubated for 5 days. Cell viability was assessed using the Resaruzin (Alamar blue) indicator dye. Quantitative analysis of dye conversion was measured using a fluorescent plate reader (ex/em=550/580 nm) and viability was expressed as fold increase over of untreated cells.

Compound: N=C(N)NCCC[C@@H](NC(=O)[C@H](Cc1ccccc1)NC(=O)[C@H](Cc1ccccc1)NC(=O)[C@@H](CCCNC(=N)N)NC(=O)CCCC[C@@H]1SC[C@@H]2NC(=O)N[C@@H]21)C(N)=O [biotin-HDAP2, Biotin-dArg-Phe-Phe-dArg-NH2] (Biotin-[dR]FF[dR]-NH2)
- mitochondria membrane potential in starved cells (MDBK cells [1]; 1 μM, serum free 5-7 days, 100 nM MitoTracker): improved mitochondria membrane potential in starved cells
- increase of MitoTracker Red CMXRos fluorescence intensity vs untreated controls (MDBK cells [1]; 1 μM, serum starvation): over 2.5 times
- increase of mitochondrial membrane potential compared to serum-free control (MDBK cells [1]; 1 μM, serum-free 3-4 days): 150%
- improvement of mitochondrial potential (MDBK cells [1]; FIG. 10D): 2.5 fold
- Nile Red emission after blue shift [2]: 618 nm
- toxicity in mice (mice): no adverse effects
- optic nerve axon morphology ([3]; 10-month-old animals, high IOP at least 3 months): morphologically comparable to those of young controls
- RGC counts (mean) ([3]; all available time points, n=23): 26,267±14,440
- RGC counts compared with other groups ([3]; elevated cIOP): significantly higher RGC counts overall; also recorded: RGC counts similar to controls
- mitochondrial ultrastructure in RGC axons (TEM) ([3]; nerves exposed to high IOP): more numerous and exhibit preserved cristae and greater structural integrity
- AlamarBlue fluorescence / protection during serum starvation (MDBK cells [4]; 1 μM, 5 days serum starvation): increased AlamarBlue fluorescence
- increase in cell survival compared to untreated controls (MDBK cells [4]; 1 μM, serum-free 5 days, AlamarBlue): 50%
- EC50 (MDBK cells [4]; serum-free, 5 days, AlamarBlue, read-out: EC50, cell survival in serum-free conditions): ~0.1 µM and 0.1 µM
